Source: patent US9802895B2, “Indole and benzimidazolecarboxamides as insecticides and acaricides” (BAYER CROPSCIENCE AKTIENGESELLSCHAFT, priority 2014, dated 2017)

Experiments:
[1] = tested on: larvae of the mustard beetle (Phaedon cochleariae); assay: Phaedon cochleariae spray test (PHAECO); type: in vivo; conditions: 100 g/ha, after 7 days
Protocol: Phaedon cochleariae—Spray Test (PHAECO)
(§1) Solvent: 78.0 parts by weight of acetone • • 1.5 parts by weight of dimethylformamide
(§2) Emulsifier: alkylaryl polyglycol ether
(§3) To produce a suitable active compound formulation, 1 part by weight of active compound is dissolved using the specified parts by weight of solvent and made up with water containing an emulsifier concentration of 1000 ppm until the desired concentration is attained. To produce further test concentrations, the preparation is diluted with emulsifier-containing water.
After 7 days, the efficacy in % is determined. 100% means that all the beetle larvae have been killed; 0% means that no beetle larvae have been killed.

[2] = tested on: adult houseflies (Musca domestica); assay: Musca domestica test (MUSCDO); type: in vivo; conditions: 100 ppm, after 2 days
Protocol: Musca domestica Test (MUSCDO) Solvent: dimethyl sulphoxide To produce a suitable active compound formulation, 10 mg of active compound are mixed with 0.5 ml of dimethyl sulphoxide, and the concentrate is diluted with water to the desired concentration. Vessels containing a sponge treated with sugar solution and the active compound preparation of the desired concentration are populated with 10 adult houseflies (Musca domestica). After 2 days, the kill in % is determined. 100% means that all of the flies have been killed; 0% means that none of the flies have been killed.

[3] = tested on: engorged adult female cattle ticks (Boophilus microplus); assay: Boophilus microplus injection test (BOOPMI inj); type: in vivo; conditions: assessed after 7 days
Protocol: Boophilus microplus Injection Test (BOOPMI inj) Solvent: dimethyl sulphoxide To produce a suitable active compound formulation, 10 mg of active compound are mixed with 0.5 ml of solvent and the concentrate is diluted with solvent to the desired concentration. 1 μl of the active compound solution is injected into the abdomen of 5 engorged adult female cattle ticks (Boophilus microplus). The animals are transferred into dishes and kept in a climate-controlled room. The efficacy is assessed after 7 days by laying of fertile eggs. Eggs which are not visibly fertile are stored in a climate-controlled cabinet until the larvae hatch after about 42 days. An efficacy of 100% means that none of the ticks has laid any fertile eggs; 0% means that all the eggs are fertile.

[4] = log P by HPLC (EEC directive 79/831 Annex V.A8); type: physicochemical; conditions: HPLC, reversed-phase column (C18), 43° C., acidic range pH 2.7
Protocol: a) The determination of the M^+ by LC-MS in the acidic range is effected at pH 2.7, acetonitrile (contains 0.1% formic acid) and water as eluents; linear gradient from 10% acetonitrile to 95% acetonitrile, instrument: Agilent 1100 LC system, Agilent MSD system, HTS PAL. The log P values reported in the tables and Preparation Examples above were determined in accordance with EEC directive 79/831 Annex V.A8 by HPLC (High Performance Liquid Chromatography) using a reversed-phase column (C18). Temperature 43° C. The calibration is effected with unbranched alkan-2-ones (having 3 to 16 carbon atoms), for which the logP values are known.

[5] = tested on: greenhouse red spider mite (Tetranychus urticae); assay: Tetranychus urticae spray test, OP-resistant (TETRUR); type: in vivo; conditions: for efficacy: 100 g/ha, spray, after 6 days; for % efficacy: TETRUR, 6 dat
Protocol: Tetranychus urticae—Spray Test, OP-Resistant (TETRUR)
as §1, §2, §3
Discs of bean leaves (Phaseolus vulgaris) infested by all stages of the greenhouse red spider mite (Tetranychus urticae) are sprayed with an active compound formulation of the desired concentration.
After 6 days, the efficacy in % is determined 100% means that all the spider mites have been killed; 0% means that none of the spider mites have been killed.
Tetranychus urticae—Spray Test; OP-Resistant (TETRUR)
After the desired period of time, the efficacy in % is determined 100% means that all the spider mites have been killed; 0% means that none of the spider mites have been killed.

[6] = tested on: L1 larvae of the Australian sheep blowfly (Lucilia cuprina); assay: Lucilia cuprina test (LUCICU); type: in vivo; conditions: 100 ppm, after 2 days
Protocol: Lucilia cuprina Test (LUCICU) Solvent: dimethyl sulphoxide To produce a suitable active compound formulation, 10 mg of active compound are mixed with 0.5 ml of dimethyl sulphoxide, and the concentrate is diluted with water to the desired concentration. About 20 L1 larvae of the Australian sheep blowfly (Lucilia cuprina) are transferred into a test vessel containing minced horsemeat and the active compound preparation of the desired concentration. After 2 days, the kill in % is determined 100% means that all the larvae have been killed; 0% means that none of the larvae have been killed.

[7] = tested on: adult cat fleas (Ctenocephalides felis); assay: Ctenocephalides felis oral test (CTECFE); type: in vivo; conditions: 100 ppm, oral in cattle blood, after 2 days
Protocol: Ctenocephalides felis-Oral Test ([…]) Solvent: dimethyl sulphoxide To produce a suitable active compound formulation, 10 mg of active compound are mixed with 0.5 ml of dimethyl sulphoxide. Dilution with citrated cattle blood gives the desired concentration. About 20 unfed adult cat fleas (Ctenocephalides felis) are placed into a chamber which is closed at the top and bottom with gauze. A metal cylinder whose bottom end is closed with parafilm is placed onto the chamber. The cylinder contains the blood/active compound preparation, which can be imbibed by the fleas through the parafilm membrane. After 2 days, the kill in % is determined 100% means that all of the fleas have been killed; 0% means that none of the fleas have been killed.

[8] = tested on: caterpillars of the armyworm (Spodoptera frugiperda); assay: Spodoptera frugiperda spray test (SPODFR); type: in vivo; conditions: for efficacy: 100 g/ha, spray, after 7 days; for % efficacy: SPODFR, 7 dat
Protocol: Spodoptera frugiperda—Spray Test (SPODFR) Solvent: 78.0 parts by weight of acetone • • 1.5 parts by weight of dimethylformamide Emulsifier: alkylaryl polyglycol ether To produce a suitable active compound formulation, 1 part by weight of active compound is dissolved using the specified parts by weight of solvent and made up with water containing an emulsifier concentration of 1000 ppm until the desired concentration is attained. To produce further test concentrations, the preparation is diluted with emulsifier-containing water. Leaf discs of maize (Zea mays) are sprayed with an active compound formulation of the desired concentration and, after drying, populated with caterpillars of the armyworm (Spodoptera frugiperda). After 7 days, the efficacy in % is determined 100% means that all the caterpillars have been killed; 0% means that no caterpillars have been killed. Spodoptera frugiperda—Spray Test (SPODFR) Solvent: 78.0 parts by weight of acetone • • 1.5 parts by weight of dimethylformamide Emulsifier: alkylaryl polyglycol ether To produce a suitable active compound formulation, 1 part by weight of active compound is dissolved using the specified parts by weight of solvent and made up with water containing an emulsifier concentration of 1000 ppm until the desired concentration is attained. To produce further test concentrations, the preparation is diluted with emulsifier-containing water. Leaf discs of maize (Zea mays) are sprayed with an active compound formulation of the desired concentration and, after drying, populated with caterpillars of the armyworm (Spodoptera frugiperda). After the desired period of time, the efficacy in % is determined. 100% means that all the caterpillars have been killed; 0% means that no caterpillars have been killed.

[9] = tested on: L2 larvae of the banded cucumber beetle (Diabrotica balteata); assay: Diabrotica balteata drench test (DIABBA); type: in vivo; conditions: 8 dat
Protocol: Diabrotica balteata—Drench Test (DIABBA) Solvent: 7 parts by weight of dimethylformamide Emulsifier: 2 parts by weight of alkylaryl polyglycol ether To produce a suitable active compound formulation, 1 part by weight of active compound is mixed with the specified amounts of solvent and emulsifier, and the concentrate is diluted with water to the desired concentration, it being necessary to include the volume of soil which is drenched in the calculation. It should be ensured that a concentration of 40 ppm of emulsifier in the soil is not exceeded. To produce further test concentrations, water is used for dilution. […] After one day, 25 L2 larvae of the banded cucumber beetle (Diabrotica balteata) are added. After 8 days, the efficacy in % is determined 100% means that all 5 plants have germinated and grown; 0% means that none of the plants has emerged.

Row | SMILES | efficacy [1] | efficacy (kill in %) [2] | efficacy (laying of fertile eggs) [3] | log P [4] | efficacy [5] | efficacy (kill in %) [6] | efficacy (kill in %) [7] | efficacy [8] | % efficacy ([8]; 0.8 g/ha) | % efficacy ([8]; 4 g/ha) | % efficacy ([5]; 4 g/ha) | % efficacy ([5]; 20 g/ha) | % efficacy ([9]; 4 ppm) | % efficacy ([9]; 20 ppm)
1 | CCn1c(C(=O)NC(c2ccc(F)c(C(F)(F)F)c2)C(F)(F)F)cc2cc(C(=O)NC3(C(N)=S)CC3)c(Cl)cc21 (centres unmarked) [I-03] | 100% | 100% | 100% | 3.70 | 90% | 100% | 100% | 100% | 100% | 100% | – | – | – | –
2 | CCn1c(C(=O)NC(c2ccc(F)c(Cl)c2)C(F)(F)F)cc2cc(C(=O)NC3(C(N)=S)CC3)c(Cl)cc21 (centres unmarked) [I-04] | 100% | 100% | 100% | 3.57 | 100% | 100% | 100% | 100% | 100% | 100% | – | – | – | –
3 | CCn1c(C(=O)NC(c2cc(Cl)c(Cl)c(Cl)c2)C(F)(F)F)cc2cc(C(=O)NC3(C(N)=S)CC3)c(Cl)cc21 (centres unmarked) [I-05] | 100% | 100% | 100% | 4.33 | 90% | 100% | 100% | 100% | – | – | – | – | – | –
4 | CCn1c(C(=O)NC(c2ccc(Cl)c(C(F)(F)F)c2)C(F)(F)F)cc2cc(C(=O)NC3(C(N)=S)CC3)c(Cl)cc21 (centres unmarked) [I-07] | 100% | 100% | 100% | 3.96 | 100% | 100% | 100% | 100% | 67% | 100% | – | – | – | –
5 | CCn1c(C(=O)NC(c2cc(F)c(Cl)c(Cl)c2)C(F)(F)F)cc2cc(C(=O)NC3(C(N)=S)CC3)c(Cl)cc21 (centres unmarked) [I-09] | 100% | 100% | 100% | 4.02 | 100% | 100% | 100% | 100% | – | – | – | – | – | –
6 | CCn1c(C(=O)NC(c2cc(F)cc(C(F)(F)F)c2)C(F)(F)F)cc2cc(C(=O)NC3(C(N)=S)CC3)c(Cl)cc21 (centres unmarked) [I-10] | 100% | 100% | 100% | 3.81 | 100% | 100% | 100% | 100% | 100% | 100% | – | – | – | –
7 | CCn1c(C(=O)NC(c2ccc(Cl)c(C(F)(F)F)c2)C(F)(F)F)cc2cc(C(=O)NC3(C(N)=S)CC3)c(C)cc21 (centres unmarked) [I-13] | 100% | 100% | 100% | 3.89 | 100% | 100% | 100% | 100% | – | – | – | – | – | –
8 | CCn1c(C(=O)NC(c2cc(Cl)cc(C(F)(F)F)c2)C(F)(F)F)cc2cc(C(=O)NC3(C(N)=S)CC3)c(Cl)cc21 (centres unmarked) [I-22] | 100% | 100% | 100% | 4.11 | 100% | 100% | 100% | 100% | 100% | 100% | 100% | 100% | 50% | 100%
9 | CCn1c(C(=O)NC(c2cc(Cl)cc(Cl)c2)C(F)F)cc2cc(C(=O)NC3(C(N)=S)CC3)c(Cl)cc21 (centres unmarked) [I-24] | 100% | 80% | 100% | 3.65 | 100% | 100% | 100% | 100% | – | – | – | – | – | –
10 | CCn1c(C(=O)NC(c2cc(Cl)c(F)c(F)c2F)C(F)(F)F)cc2cc(C(=O)NC3(C(N)=S)CC3)c(Cl)cc21 (centres unmarked) [I-26] | 100% | 100% | 100% | 3.99 | 100% | 100% | 100% | 100% | – | – | – | – | – | –
11 | CCn1c(C(=O)NC(c2cc(F)c(Cl)c(Cl)c2F)C(F)(F)F)cc2cc(C(=O)NC3(C(N)=S)CC3)c(Cl)cc21 (centres unmarked) [I-27] | 100% | 100% | 100% | 4.28 | 100% | 100% | 100% | 100% | – | – | – | – | – | –
12 | CCn1c(C(=O)NC(c2cc(F)c(Cl)c(F)c2F)C(F)(F)F)cc2cc(C(=O)NC3(C(N)=S)CC3)c(Cl)cc21 (centres unmarked) [I-31] | 100% | 100% | 100% | 4.02 | 100% | 100% | 100% | 100% | – | – | – | – | – | –
